From PMC9227077, “Prediction Models for Brain Distribution of Drugs Based on Biomimetic Chromatographic Data” (Molecules, 2022)
Read-outs that look alike come from different tables or passages of the source.

Key:
α1 acid glycoprotein = test system: α1 acid glycoprotein; parameters: method as in ref 23, 24, 27, 29, 45 (a number printed in a supplementary file, which may have a reference list of its own: not looked up in the article's list); conditions: pH=7.4, 100% aqueous mobile phase; previously obtained in authors' laboratory; cited from earlier work
[1] = Unbound fraction in brain (fu,brain), brain homogenate method; conditions: Kb from literature fu,brain
Text: However, Kp,uu,brain can be derived from Kp,brain by combining the unbound fraction of the drug in the plasma (fu,p) and in the brain (fu,brain) or the unbound brain volume of distribution, Vu,brain [7]. […] The relevant equations are included in Section 3. Evidently, fu,p is obtained by standard methods for plasma protein binding.
Experimentally determined Kp,brain values for 42 compounds were obtained from the literature and were converted to logBB. They preferably referred to rat studies in order to achieve homogeneity in the data. Experimental fu,brain values were available from the literature for 39 compounds in the dataset. When more than one value was available, the average was calculated. Most values were determined on rats.
The decimal logarithm of Kb, logKb, was used for the development of the models.

[2] = parameters: method as in ref 23, 24, 27, 29, 45 (a number printed in a supplementary file, which may have a reference list of its own: not looked up in the article's list); conditions: 100% aqueous mobile phase, previously obtained in authors' laboratory, cited from earlier work
human serum albumin = test system: human serum albumin; parameters: method as in ref 45 (a number printed in a supplementary file, which may have a reference list of its own: not looked up in the article's list); conditions: cited from earlier work
[3] = rat brain tissue; cited from earlier work
[4] = cited from earlier work
[5] = cited from earlier work; remark: listed apart in the source
[6] = brain slice method; cited from earlier work
[7] = most values in rats, average if more than one value; cited from earlier work
[8] = pH=7.4, isocratic, 10% acetonitrile, available for 37 compounds, remaining calculated by equation
[9] = literature Kp,brain converted to logBB
[10] = total brain/total plasma, preferably rat studies
[11] = pH=5.0, octanol-water, experimental
[12] = pH=7.4, octanol-water, experimental
[13] = octanol-water partition coefficient, experimental

Row | SMILES | logkwAGP (α1 acid glycoprotein) | logKb exper. [1] | logkw IAM ([2]; pH=5.0, PBS) | logkw IAM ([2]; pH=7.4, PBS) | logk10,HSA (human serum albumin; [8]) | Kp,uu,brain [3] | logBB exper. [4, 9] | Kp,brain [4, 10] | logD [5, 11] | logD [5, 12] | Vu,brain [6] [mL/g brain] | fu,brain [7] | logk10,HSA (human serum albumin) | logP [5, 13] | Kp,brain ([4]; rat, in vivo) | logBB exper. ([4]; rat, in vivo) | logP [5]
1 | CC(=O)Nc1ccc(O)cc1 [Acetaminophen] | 0.10 | 0.692 | -0.06 | 0.18 | -0.56 | 0.18 | -0.31 | 0.49 |  |  |  |  |  |  |  |  | 
2 | CN(C)CCC=C1c2ccccc2CCc2ccccc21 [Amitriptyline] | 2.40 |  | 2.06 | 2.99 | 0.89 |  | 0.98 | 9.55 | 1.13 | 2.50 | 310.00 | 0.010 |  |  |  |  | 
3 | Cc1cc(=O)n(-c2ccccc2)n1C [Antipyrine] | 0.88 |  |  | 0.45 |  | 0.71 |  | 0.80 |  |  |  | 0.862 | -1.04 |  |  |  | 
4 | Cn1c(=O)c2c(ncn2C)n(C)c1=O [Caffeine] |  |  |  | 0.26 |  | 0.77 |  |  |  |  |  |  |  |  |  |  | 
5 | CCOc1nc2cccc(C(=O)O)c2n1Cc1ccc(-c2ccccc2-c2nnn[nH]2)cc1 [Candesartan] | 0.09 |  | 1.57 | 1.00 | 0.42 |  | -1.4 | 0.04 | 1.00 | -1.35 |  |  |  | 3.36 |  |  | 
6 | CN(C)CCCN1c2ccccc2Sc2ccc(Cl)cc21 [Chlorpromazine] | 2.30 |  |  |  | 1.34 |  |  |  |  |  |  | 0.003 |  |  |  |  | 
7 | CN(C)CCCN1c2ccccc2CCc2ccc(Cl)cc21 [Clomipramine] | 2.70 |  | 2.49 | 3.29 |  |  | 1.34 | 21.88 | 2.19 | 3.30 |  | 0.004 |  | 5.46 |  |  | 
8 | COC(=O)[C@H]1[C@@H](OC(=O)c2ccccc2)C[C@@H]2CC[C@H]1N2C [Cocaine] |  |  |  | 1.90 | 0.33 | 0.37 |  |  | -0.96 | 1.07 |  |  |  | 3.01 | 3.98 | 0.6 | 
9 | CN(C)CCC=C1c2ccccc2COc2ccccc21 [Doxepin] | 2.30 |  | 1.98 | 2.50 | 0.56 |  |  |  | 0.86 | 2.22 |  |  |  | 3.96 |  |  | 
10 | CN1C(=O)CN=C(c2ccccc2F)c2cc([N+](=O)[O-])ccc21 [Flunitrazepam] | 1.44 |  |  | 1.79 |  |  |  |  |  |  |  |  | 0.26 |  |  |  | 
11 | CNCCC(Oc1ccc(C(F)(F)F)cc1)c1ccccc1 (stereo not shown) [Fluoxetine] | 2.10 |  | 2.46 | 2.98 |  |  | 0.72 | 5.25 |  |  |  |  |  | 4.26 |  |  | 
12 | CC(C)Cc1ccc(C(C)C(=O)O)cc1 (stereo not shown) [Ibuprofen] |  |  | 1.55 | 0.87 |  | 0.56 |  |  | 2.15 |  |  |  |  |  |  |  | 
13 | COc1ccc2c(c1)c(CC(=O)O)c(C)n2C(=O)c1ccc(Cl)cc1 [Indomethacin] | 1.59 |  | 2.93 | 2.41 |  |  | -1.26 | 0.05 | 2.95 |  | 14.00 | 0.042 | 1.76 |  |  |  | 
14 | O=C1Nc2ccc(Cl)cc2C(c2ccccc2Cl)=NC1O (stereo not shown) [Lorazepam] | 1.33 |  | 2.01 | 2.03 | 0.67 |  | 0.47 | 2.95 |  |  |  |  |  |  |  |  | 
15 | CCCC(C)(COC(N)=O)COC(N)=O [Meprobamate] |  | 0.245 | 0.54 | 0.72 | -0.36 |  |  |  | 1.07 | 0.70 |  | 0.638 |  | 0.70 |  |  | 
16 | Cc1ncc2n1-c1ccc(Cl)cc1C(c1ccccc1F)=NC2 [Midazolam] |  |  | 1.93 | 2.77 | 0.99 | 2.19 | 0.36 | 2.29 | 1.95 | 3.27 | 29.00 | 0.026 |  |  |  |  | 
17 | CNCCC=C1c2ccccc2CCc2ccccc21 [Nortriptyline] | 2.30 |  | 2.12 | 2.83 | 0.82 |  |  |  | 1.16 | 1.70 |  | 0.006 |  | 4.04 |  |  | 
18 | CC1COc2c(N3CCN(C)CC3)c(F)cc3c(=O)c(C(=O)O)cn1c23 (stereo not shown) [Ofloxacin] |  |  | 1.35 | 1.30 |  | 0.12 |  |  | -1.31 |  |  |  | -0.65 |  |  |  | 
19 | C=CCOc1ccccc1OCC(O)CNC(C)C (stereo not shown) [Oxprenolol] |  |  | 0.87 | 1.47 | -0.25 |  | 0.025 | 1.06 | -0.61 | 0.32 | 11.80 | 0.280 |  |  |  |  | 
20 | CCCC(C)C1(CC)C(=O)NC(=O)NC1=O (stereo not shown) [Pentobarbital] | 1.35 |  | 1.40 | 1.29 | -0.04 |  |  |  | 1.88 | 1.95 |  |  |  | 2.07 | 1.32 | 0.12 | 
21 | OCCN1CCN(CCCN2c3ccccc3Sc3ccc(Cl)cc32)CC1 [Perphenazine] | 3.19 |  |  | 3.67 | 1.24 |  |  |  | 1.61 | 3.65 |  | 0.004 |  | 4.20 |  |  | 
22 | CCC1(c2ccccc2)C(=O)NC(=O)NC1=O [Phenobarbital] | 1.10 |  | 0.71 | 0.28 | -0.22 |  |  |  | 1.47 | 1.14 |  |  |  |  | 0.72 | -0.14 | 
23 | O=C1NC(=O)C(c2ccccc2)(c2ccccc2)N1 [Phenytoin] | 1.60 |  | 1.94 | 1.75 | 0.44 | 0.45 | -0.04 | 0.91 | 1.95 | 2.17 |  | 0.121 |  | 2.24 |  |  | 
24 | CC(CN1c2ccccc2Sc2ccccc21)N(C)C (stereo not shown) [Promethazine] | 2.50 |  | 2.18 | 2.78 | 1.05 |  | 0.824 | 6.67 | 1.59 | 2.79 |  |  |  |  |  |  | 
25 | CC(C)NCC(O)COc1cccc2ccccc12 (stereo not shown) [Propranolol] | 2.20 |  | 1.63 | 2.33 | 0.48 |  | 0.64 | 4.37 |  |  | 112.00 | 0.025 |  |  |  |  | 
26 | C=C[C@H]1C[N@@]2CC[C@H]1C[C@@H]2[C@@H](O)c1ccnc2ccc(OC)cc12 [Quinidine] | 1.71 |  |  | 2.34 |  | 0.03 |  |  |  |  |  |  | 0.29 |  |  |  | 
27 | CNC(=C[N+](=O)[O-])NCCSCc1ccc(CN(C)C)o1 [Ranitidine] |  | 1.317 |  | 0.61 | -0.41 |  | -1.23 | 0.06 | -3.37 | -0.53 |  |  |  |  |  |  | 1.28
28 | Cc1nc2n(c(=O)c1CCN1CCC(c3noc4cc(F)ccc34)CC1)CCCC2 [Risperidone] |  |  |  | 2.49 | 0.13 | 0.08 |  |  |  |  |  |  |  |  |  |  | 
29 | CSc1ccc2c(c1)N(CCC1CCCCN1C)c1ccccc1S2 (stereo not shown) [Thioridazine] |  |  |  |  | 1.59 |  | 0.24 | 1.74 | 3.06 | 3.34 | 3333.00 | 0.001 |  | 5.90 |  |  | 
30 | O=c1n(CCCN2CCN(c3cccc(Cl)c3)CC2)nc2ccccn12 [Trazodone] | 2.36 |  |  |  |  |  |  |  | 2.89 | 3.70 |  | 0.071 |  |  |  |  | 
